Data taken from patent US5817776A, “Amino acid analogs for tumor imaging” (priority 1996, dated 1998).

How the values were obtained:
[1] = tested on: metastatic lesions in the brain; conditions: cited from earlier work
[2] = tested on: N-methyl-D-aspartic acid (NMDA) receptor, strychnine-insensitive glycine recognition site; conditions: cited from earlier work
several tumor types = conditions: labeled with carbon-14 or carbon-11, animals, Washburn et al. 1979; cited from earlier work
normal tissue = conditions: in vivo; cited from earlier work
[3] = tested on: human astrocyte tumor cells; assay: Binding to human astrocyte tumor cells in a human patient; format: in vivo
implanted gliosarcoma = assay: in vivo; conditions: for Bone, Mean % Injected Dose/Gram: unfasted male fisher rats, average of 4 rats
Protocol: (§1) In vivo distribution of a compound of the invention, [^18 F]-1-amino-3-fluoro-cyclobutane-1-carboxylic acid (FACBC) was measured in rats having an implanted gliosarcoma. Accumulation in various tissue was measured at 5 min and 60 min post-administration.
(§2) Distribution of Radioactivity in Tissues of Unfasted Male
(§3) Fisher Rats following Intravenous Administration of [^18 F]FACBC

in vivo = conditions: rat, in vivo, iv, Mean % Injected Dose/Gram
Protocol: as §1, §2, §3

[4] = 60 min, intravenous, male fisher rats with implanted gliosarcoma

For `NC1(C(=O)O)CCC1` [ACBC, 1-aminocyclobutanecarboxylic acid], the “substrate for protein synthesis in metastatic lesions; normal brain uptake (in words)” value [1] is given as “selective substrate for protein synthesis in metastatic lesions in the brain with little observable uptake in normal brain tissue”, the “NMDA receptor ligand and antagonist activity (in words)” value [2] is given as “selective and potent ligand and antagonist” and the “incorporation by tumors (in words)” value (several tumor types) is given as “incorporated preferentially by several tumor types in animals”.
In the case of `CSCC[C@H](N)C(=O)O` [[^11 C] methionine, methionine], the “uptake in normal tissue (in words)” value (normal tissue) is given as “relatively high uptake in normal tissue”.
In the case of `NC1(C(=O)O)CC([18F])C1` (stereo not shown) [[^18 F]FACBC, [^18 F]-1-amino-3-fluorocyclobutane-1-carboxylic acid], the “binding to human astrocyte tumor cells (in words)” value [3] is reported as “highly specific binding to human astrocyte tumor cells”, the “T/B (tumor to brain ratio)” value (implanted gliosarcoma; 5 min, intravenous, male fisher rats with implanted gliosarcoma) is reported as 5.58 and the “Bone, Mean % Injected Dose/Gram” value (implanted gliosarcoma; 5 min, intravenous) is reported as 0.52 % Injected Dose/Gram. The “T/B (tumor to brain ratio)” value (implanted gliosarcoma; [4]) was 6.6, the “Tumor (T), Mean % Injected Dose/Gram” value (implanted gliosarcoma; [4]) was 1.72 % Injected Dose/Gram and the “Bone, Mean % Injected Dose/Gram” value (implanted gliosarcoma; 60 min, intravenous) was 0.38 % Injected Dose/Gram. The “T/B (tumor to brain ratio)” value (implanted gliosarcoma; rat, in vivo, iv) was 6.61, the “stability to in vivo defluorination (bone uptake)” value (implanted gliosarcoma; rat, in vivo, iv) was “Uptake by bone was essentially constant over the 60 minutes of exposure, indicating stability of the 2-cyclobutyl group to significant in vivo defluorination” and the “tumor uptake / tumor to brain discrimination (in words)” value (implanted gliosarcoma; rat, in vivo, iv) was “preferentially associated with tumor tissue as early as 5 minutes post administration”. For the same molecule, the “Brain (B), Mean % Injected Dose/Gram” value (implanted gliosarcoma; rat, in vivo, iv, 5 min) was 0.11 % Injected Dose/Gram, the “Brain (B), Mean % Injected Dose/Gram” value (implanted gliosarcoma; rat, in vivo, iv, 1 h) was 0.26 % Injected Dose/Gram and the tissue uptake at 5 min (in vivo; Blood, 5 min, unfasted male fisher rats, average of 4 rats) was 0.58 %ID/g. For the same molecule, the tissue uptake at 1 h (in vivo; Blood, 60 min, unfasted male fisher rats, average of 4 rats) was 0.32 %ID/g, the tissue uptake at 5 min (in vivo; Bone, 5 min, unfasted male fisher rats, average of 4 rats) was 0.52 %ID/g and the tissue uptake at 1 h (in vivo; Bone, 60 min, unfasted male fisher rats, average of 4 rats) was 0.38 %ID/g. It also gave a tissue uptake at 5 min (in vivo; Brain (B)) of 0.11 %ID/g, a tissue uptake at 1 h (in vivo; Brain (B)) of 0.26 %ID/g and a tissue uptake at 5 min (in vivo; Heart) of 0.7 %ID/g. It also gave a tissue uptake at 1 h (in vivo; Heart) of 0.56 %ID/g, a tissue uptake at 5 min (in vivo; Kidney) of 1.08 %ID/g and a tissue uptake at 1 h (in vivo; Kidney) of 0.6 %ID/g. For the same molecule, the tissue uptake at 5 min (in vivo; Liver) was 1.1 %ID/g, the tissue uptake at 1 h (in vivo; Liver) was 1.7 %ID/g and the tissue uptake at 5 min (in vivo; Lung) was 1.13 %ID/g. The tissue uptake at 1 h (in vivo; Lung) was 0.64 %ID/g, the tissue uptake at 5 min (in vivo; Muscle) was 0.27 %ID/g and the tissue uptake at 1 h (in vivo; Muscle) was 0.41 %ID/g. It also gave a tissue uptake at 5 min (in vivo; Spleen) of 1.55 %ID/g, a tissue uptake at 1 h (in vivo; Spleen) of 0.68 %ID/g and a tissue uptake at 5 min (in vivo; Testis) of 0.25 %ID/g. For the same molecule, the tissue uptake at 1 h (in vivo; Testis) was 0.28 %ID/g, the tissue uptake at 5 min (in vivo; Tumor (T), 5 min, male fisher rats with implanted gliosarcoma) was 0.61 %ID/g and the tissue uptake at 1 h (in vivo; Tumor (T), 60 min, male fisher rats with implanted gliosarcoma) was 1.72 %ID/g.
